Results on three molecules are retold here after PMC3955178, “Structural characterization of a hypothetical protein: a potential agent involved in trimethylamine metabolism in Catenulispora acidiphila” (Journal of Structural and Functional Genomics, 2014).

The target of series [1] is T1, Caci_0382 (Catenulispora acidiphila, UniProt C7PVH9).
T1 construct: homodimer
T1 sequence (C7PVH9 1-134): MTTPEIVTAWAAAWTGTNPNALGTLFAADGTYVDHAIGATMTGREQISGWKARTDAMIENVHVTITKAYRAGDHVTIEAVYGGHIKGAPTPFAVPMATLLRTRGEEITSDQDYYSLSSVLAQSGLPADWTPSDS
As to the kind of experiment: fluorescence thermal shift (Sypro Orange). Type of series: binding. The settings on record: read-out: Tm shift at 0.1 mM.

In series [2] the target is T1, Caci_0382. In words: fluorescence thermal shift (Sypro Orange). The class given is binding. The settings on record: 20 mM Hepes pH 7.5, 150 mM NaCl; 14 μM protein; printed as Tm but evidently the Tm shift; unit and concentration not given; in °C (unit assumed).
Series [3] deals with the molecule itself. As to the kind of experiment: SEC; gel-filtration chromatography, data not shown. (Size exclusion chromatography separates by hydrodynamic size, large species first.)

For orientation: stoichiometry N means the number of molecules, sites or subunits per partner or assembly.

Turning to `CN(C)C` [TMA, trimethylamine], the ΔTm at 100 µM at Caci_0382 [1] amounted to 3 °C.

As for `c1c[nH]cn1` [Imidazole], at Caci_0382 [2], the Tm amounted to 10.26.

B1: Caci_0382 from Catenulispora acidiphila DSM 44928 (natural protein)
chain: MTTPEIVTAWAAAWTGTNPNALGTLFAADGTYVDHAIGATMTGREQISGWKARTDAMIENVHVTITKAYRAGDHVTIEAVYGGHIKGAPTPFAVPMATLLRTRGEEITSDQDYYSLSSVLAQSGLPADWTPSDS
modifications: selenomethionine-labeled
notes: Caci_0382, hypothetical protein of the NTF2-like family, Catenulispora acidiphila DSM 44928; the gene encodes a 134 amino-acid protein of 14.3 kDa; Subcloned in the pMCSG57 vector, which adds a 6 His-Tag at the N-terminus; 131 Calpha atoms per subunit were aligned between the two crystal forms; also called hypothetical protein Caci_0382
With B1, the “stoichiometry N” value in series [3] stood at 2.
